Measured values published in article PMC11638965, “Leveraging Dual-Ligase Recruitment to Enhance Protein Degradation via a Heterotrivalent Proteolysis Targeting Chimera” (Journal of the American Chemical Society, 2024).
Entries after “also recorded” stand apart in the source; their conditions may differ. Where two headings read alike, the source gives them in different places.

Key:
[1] = tested on: HiBiT-BRD4 and HaloTag-CRBN; experiment: NanoBRET live cell ternary complex formation assay; assay type: cell-based, human; conditions: for ternary complex formation between BRD4 and CRBN (in words): HiBiT-BRD4 HEK293 cells, HaloTag-CRBN, MG132 pretreatment, 0.01, 0.1 and 1 μM, 3.5 h; for time to plateau of ternary complex signal with CRBN: NanoBRET, HiBiT-BRD4 HEK293 cells with HaloTag-CRBN
Protocol: NanoBRET ternary complex assays were performed using Promega kits for CRBN (ND2720) and VHL (ND2700) according to manufacturer’s instructions. One day prior to the assay, HEK293 HiBiT-BRD4 (LgBiT Stable) were plated at a density of 800,000 cells/well in a 6-well plate. Cells were allowed to adhere for at least 4 h. Transfection mixtures containing 100 μL Opti-MEM, 6 μL FuGENE HD, and either 2 μg HaloTag-CRBN or HaloTag-VHL were prepared and allowed to incubate for 10 min at room temperature prior to addition to the cells. The next day, cells were trypsinized and resuspended in phenol red-free Opti-MEM Reduced Serum Medium supplemented with 4% FBS. Cells were counted and density was adjusted to 200,000 cells/mL. Cells were divided into two pools: one which received HaloTag NanoBRET 618 Ligand at a final concentration of 100 nM and one which received the same volume of DMSO. Cells were plated on white tissue-culture 96-well plates (100 μL/well) and allowed to adhere overnight. The next day, media was aspirated from the cells and replaced with phenol red-free Opti-MEM Reduced Serum medium supplemented with 4% FBS and a 1:100 dilution of Nano-Glo Vivazine substrate (Promega) and 10 μM MG132. Luminescence was allowed to equilibrate at 37 °C, 5% CO2 for 1 h. During this time, a dilution series of each PROTAC at 10x the desired final concentration was prepared (keeping DMSO constant in all concentrations). 10 μL of this dilution series was added to the plate after luminescence equilibration, and kinetic measurements of donor emission at 460 nm and acceptor emission at 618 nm were collected every 3 min using a ClarioStar plate reader. milliBRET ratios were calculated as (Emission at 618 nm/Emission at 460 nm) × 1000. Donor-contributed background or bleedthrough was corrected for by subtracting milliBRET ratios from no ligand control cells from treated cells. Corrected milliBRET ratios were plotted as a function of time in GraphPad Prism.

VHL = biological target: T1, VHL (Homo sapiens, UniProt P40337); experiment: NanoBRET lytic and live cell target engagement assay; assay type: binding
T1 construct: host or cells: HEK293, transient
Protocol: CRBN (N2910, Promega) and VHL (N2930, Promega) NanoBRET target engagement assays were performed according to manufacturer’s instructions. Transfection complexes were prepared using 1 mL Opti-MEM, 30 μL FuGENE HD, and either 9 μg/mL DDB1 Expression Vector and 1 μg/mL NanoLuc-CRBN fusion vector, or 9 μg/mL Transfection Carrier DNA and 1 μg/mL VHL-NanoLuc fusion vector. Transfection complexes were allowed to form for 20 min at room temperature, then were added to 20 mL of HEK293 cells at density of 200,000 cells/mL. Transfected HEK293 cells were plated in a T75 flask and allowed to express protein overnight. The next day, 85 μL of transfected cells (at 200,000 cells/mL) were replated in white nonbinding 96-well plates for live and lytic target engagement measurements. For live mode, a 100x solution of NanoBRET tracer was prepared using 100% DMSO (50 μM for CRBN live-cell, 100 μM for VHL live-cell). 100x tracer was used to prepare 20× tracer using tracer dilution buffer. PROTACs or test compounds were prepared at 10x final concentrations in Opti-MEM. Five μL of the prepared tracer was then dispensed to each well and the plate was mixed on an orbital shaker at 300 rpm for 15 s. Ten μL of each 10x PROTAC dilution was added to the cells and the plate was mixed again before being incubated at a 37 °C, 5% CO2 incubator for 2 or 5 h (as indicated in each figure). After incubation, a 50 μL of a 3X substrate solution (containing 30 μL NanoBRET Nano-Glo Substrate, 10 μL Extracellular NanoLuc inhibitor, and 4960 μL of Opti-MEM) was added to each well. Plates were incubated for 2–3 min at room temperature, then donor emission (450 nm) and acceptor emission (at 610 nm) values were read using a GloMax Discover. For lytic mode, the following changes were made. 100x tracer concentration for CRBN was 13 μM, 100X tracer concentration for VHL was 25 μM, 75 μL of a 200,000 cell/mL solution was plated in white nonbinding 96-well plates, and 10 μL of a 10x digitonin solution was added immediately after the cells were treated with PROTACs. Plates were incubated in darkness for 5 min after digitonin addition to allow for permeabilization. 50 μL of 3X substrate (30 μL NanoBRET Nano-Glo substrate and 4970 μL Opti-MEM) was added to each well and plates were incubated for 1 min at room temperature before being read on a GloMax Discover as above.

RKO CRBN KO cells = experiment: Cell viability assay (CellTiter-Glo); assay type: cell-based, human; conditions: 316 pM to 10 μM, 3 days, n = 3 (Figures 5 and 8C, Table S5)
[2] = HEK293 cells with NanoLuc-VHL, VHL fluorescent tracer, live cells 2 h, read-out: IC50 (Live Cell), Target: VHL
[3] = HEK293 cells with NanoLuc-VHL, VHL fluorescent tracer, lysed with digitonin, read-out: IC50 (Lytic Cell), Target: VHL
[4] = displacement of VHL tracer, live cell format, read-out: IC50 VHL, live cell format

T1 sequence (P40337 whole entry): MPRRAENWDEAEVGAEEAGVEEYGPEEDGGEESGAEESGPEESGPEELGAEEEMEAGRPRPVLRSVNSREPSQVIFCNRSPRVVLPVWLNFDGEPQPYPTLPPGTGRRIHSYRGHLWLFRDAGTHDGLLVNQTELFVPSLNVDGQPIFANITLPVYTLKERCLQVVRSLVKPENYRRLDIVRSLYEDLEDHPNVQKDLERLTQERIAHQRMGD

SMILES	ternary complex formation between BRD4 and CRBN (in words) [1]	time to plateau of ternary complex signal with CRBN [1]	IC50 (VHL; [2])	IC50 (VHL; [3])	IC50 (VHL; [4])	IC50 (VHL; displacement of VHL tracer, lytic format, read-out: IC50 VHL, lytic format)	fold weaker at engaging VHL in live cell format than in lytic format (VHL; live vs lytic)	ternary complex formation between BRD4 and CRBN (in words) ([1]; listed as 27)	EC50 (RKO CRBN KO cells; listed as 27)	EC50 (RKO CRBN KO cells; Homo sapiens, 72 h)	fold stronger binding to VHL with respect to 26, live cell format (VHL; 27 vs 26)	EC50 (RKO CRBN KO cells; listed as 86)
Cc1ncsc1-c1ccc(CNC(=O)[C@@H]2C[C@@H](O)CN2C(=O)[C@@H](NC(=O)COCC(C)(COCCOCCOCCNc2cc3c(cc2F)C(=O)N(C2CCC(=O)NC2=O)C3=O)COCCOCCOCCOC(=O)C[C@@H]2N=C(c3ccc(Cl)cc3)c3c(sc(C)c3C)-n3c(C)nnc32)C(C)(C)C)cc1 (mixture of isomers) [AB3063 (26), (17S)-11-((2-(2-(2-((2-(2,6-dioxopiperidin-3-yl)-6-fluoro-1,3-dioxoisoindolin-5-yl)amino)ethoxy)ethoxy)ethoxy)methyl)-17-((2S,4R)-4-hydroxy-2-((4-(4-methylthiazol-5-yl)benzyl)carbamoyl)pyrrolidine-1-carbonyl)-11,18,18-trimethyl-15-oxo-3,6,9,13-tetraoxa-16-azanonadecyl 2-((S)-4-(4-chlorophenyl)-2,3,9-trimethyl-6H-thieno[3,2-f][1,2,4]triazolo[4,3-a][1,4]diazepin-6-yl)acetate]	can engage and form ternary complexes	30 min	> 10 µM	1.82 µM	2.3 µM	1.82 µM	> 5.5 fold					
Cc1ncsc1-c1ccc([C@H](C)NC(=O)[C@@H]2C[C@@H](O)CN2C(=O)[C@@H](NC(=O)COCC(C)(COCCOCCOCCNc2cc3c(cc2F)C(=O)N(C2CCC(=O)NC2=O)C3=O)COCCOCCOCCOC(=O)C[C@@H]2N=C(c3ccc(Cl)cc3)c3c(sc(C)c3C)-n3c(C)nnc32)C(C)(C)C)cc1 (mixture of isomers) [AB3067 (27), (17S)-11-((2-(2-(2-((2-(2,6-dioxopiperidin-3-yl)-6-fluoro-1,3-dioxoisoindolin-5-yl)amino)ethoxy)ethoxy)ethoxy)methyl)-17-((2S,4R)-4-hydroxy-2-(((S)-1-(4-(4-methylthiazol-5-yl)phenyl)ethyl)carbamoyl)pyrrolidine-1-carbonyl)-11,18,18-trimethyl-15-oxo-3,6,9,13-tetraoxa-16-azanonadecyl 2-((S)-4-(4-chlorophenyl)-2,3,9-trimethyl-6H-thieno[3,2-f][1,2,4]triazolo[4,3-a][1,4]diazepin-6-yl)acetate]		30 min	2.28 µM	0.559 µM	> 10 µM			can engage and form ternary complexes; also recorded: more robust dose–response with both VHL and CRBN than 26	0.133 µM	0.18 µM	> 4.4 fold	
Cc1ncsc1-c1ccc(CNC(=O)[C@@H]2C[C@@H](O)CN2C(=O)[C@@H](NC(=O)COCC(COCCOCCOCCNc2cc3c(cc2F)C(=O)N(C2CCC(=O)NC2=O)C3=O)(COCCOCCOCCOC(=O)C[C@@H]2N=C(c3ccc(Cl)cc3)c3c(sc(C)c3C)-n3c(C)nnc32)COCCOCCOCCOC(=O)C[C@@H]2N=C(c3ccc(Cl)cc3)c3c(sc(C)c3C)-n3c(C)nnc32)C(C)(C)C)cc1 (mixture of isomers) [AB3124 (86)]										0.034 µM		0.062 µM
